Assay results from PubChem BioAssay AID1259408 (Genetic Toxicology Data Bank (GENE-TOX), 2018).
Calls of active or inactive are those of the source. How the calls were made is not given here.

System: GENE-TOX genotoxicity assays, various organisms and cells
Assay: GENE-TOX mutagenicity studies
Conditions: for call: Assay Type: In vivo carcinogenicity studies
[1] = Species/Cell Type: Bacillus subtilis (H17 vs M45), Assay Type: Rec-assay, spot test, DNA effects (bacterial DNA repair), Assay Code: REWT, Evaluation Type: Evaluation A (Pre-1980)
[2] = Species/Cell Type: Bacillus subtilis (H17 vs M45T), Assay Type: Rec-assay, spot test, DNA effects (bacterial DNA repair), Assay Code: REX-, Evaluation Type: Evaluation A (Pre-1980)
[3] = Species/Cell Type: Escherichia coli WP2, Assay Type: Tryptophan reverse gene mutation, Assay Code: WP2-, Evaluation Type: Evaluation A (Pre-1980)
[4] = Species/Cell Type: Salmonella typhimurium (one or more of the five standard strains: TA98, TA100, TA1535, TA1537, and TA1538), Assay Type: Histidine reverse gene mutation, Ames assay, Assay Code: SAL+*, Activation: With metabolic activation, Evaluation Type: Evaluation A (Pre-1980)
[5] = Species/Cell Type: Salmonella typhimurium (one or more of the five standard strains: TA98, TA100, TA1535, TA1537, and TA1538), Assay Type: Histidine reverse gene mutation, Ames assay, Assay Code: SAL+, Evaluation Type: Evaluation A (Pre-1980)
[6] = Species/Cell Type: Salmonella typhimurium (one or more of the five standard strains: TA98, TA100, TA1535, TA1537, and TA1538), Assay Type: Histidine reverse gene mutation, Ames assay, Assay Code: SALT, Evaluation Type: Evaluation A (Pre-1980)
[7] = Species/Cell Type: Chinese hamster lung (V79) cells, Assay Type: Forward gene mutation at the HPRT or ouabain locus, Assay Code: V79-, Evaluation Type: Evaluation A (Pre-1980)
[8] = Species/Cell Type: Saccharomyces cerevisiae, Assay Type: Mitotic recombination or gene conversion, Assay Code: YEH-, Evaluation Type: Evaluation A (Pre-1980)
[9] = Species/Cell Type: Nonhuman, Assay Code: CCGT, Evaluation Type: Evaluation A (Pre-1980)

**Q.** Which results are given for CNC(=O)Oc1ccccc1Cl?
**A.** mutagenic call [1]: no conclusion; mutagenic call [2]: inactive; negative; mutagenic call [3]: inactive; negative

**Q.** CCN(CC)CCn1nc2c3c(c(C)ccc31)Sc1cc(Cl)ccc1-2 was tested. Which mutagenic call (Species/Cell Type: Drosophila melanogaster, Assay Type: Sex-linked recessive lethal gene mutation, Assay Code: SRL-, Evaluation Type: Evaluation A (Pre-1980)) did it give?
**A.** Its mutagenic call is “inactive; negative”.

**Q.** And the mutagenic call (Species/Cell Type: Mouse lymphoma (L5178Y) cells, Assay Type: Forward gene mutation at the thymidine kinase (TK) locus, chromosome aberrations, Assay Code: L51+, Evaluation Type: Evaluation A (Pre-1980))?
**A.** Its mutagenic call is “active; positive”.

**Q.** And the mutagenic call (Species/Cell Type: Neurospora crassa, Assay Type: Forward gene mutation, Assay Code: NEF+, Evaluation Type: Evaluation A (Pre-1980))?
**A.** The mutagenic call was “active; positive”.

**Q.** And the mutagenic call [4]?
**A.** The mutagenic call was “active; positive”.

**Q.** With O=C1c2ccccc2-c2ccc(Oc3ccc(S(=O)(=O)O)cc3)c3cccc1c23 as the compound, how does the mutagenic call [5] read?
**A.** The mutagenic call was “active; positive”.

**Q.** Cc1cc(N=Nc2c(O)ccc3ccccc23)c(S(=O)(=O)O)cc1Cl was tested. Which mutagenic call [6] did it give?
**A.** The mutagenic call was “no conclusion”.

**Q.** Which results are given for CNC(=O)Oc1ccccc1C(C)C?
**A.** mutagenic call [2]: inactive; negative; mutagenic call [3]: inactive; negative

**Q.** CO[C@H]1/C=C/O[C@@]2(C)Oc3c(C)c(O)c4c(O)c(c(/C=N/N5CCN(C)CC5)c(O)c4c3C2=O)NC(=O)/C(C)=C\C=C\[C@H](C)[C@H](O)[C@@H](C)[C@@H](O)[C@@H](C)[C@H](OC(C)=O)[C@@H]1C was tested. Which mutagenic call (Species/Cell Type: Drosophila melanogaster, Assay Type: Sex-linked recessive lethal gene mutation, Assay Code: SRLT, Evaluation Type: Evaluation A (Pre-1980)) did it give?
**A.** Its mutagenic call is “no conclusion”.

**Q.** With O=C=NCCCl as the compound, how does the mutagenic call [7] read?
**A.** The mutagenic call was “inactive; negative”.

**Q.** CCCCCCCCCCCCCC(=O)O[C@@H]1[C@@H](C)[C@@]2(O)[C@@H](C=C(CO)C[C@]3(O)C(=O)C(C)=C[C@@H]23)[C@@H]2C(C)(C)[C@]12OC(C)=O was tested. Which mutagenic call [7] did it give?
**A.** The mutagenic call was “inactive; negative”.

**Q.** And the mutagenic call (Species/Cell Type: Escherichia coli polA (W3119 vs P3478), Assay Type: Rec-assay, DNA effects (bacterial DNA repair), Assay Code: RE1T, Evaluation Type: Evaluation A (Pre-1980))?
**A.** Its mutagenic call is “no conclusion”.

**Q.** What about the mutagenic call (Species/Cell Type: Fischer rat embryo (RLV/1706) cells, Assay Type: Cell transformation, viral enhanced, Assay Code: CTR-, Evaluation Type: Evaluation A (Pre-1980)) of the same compound?
**A.** The mutagenic call was “inactive; negative”.

**Q.** And the mutagenic call (Species/Cell Type: Human, Assay Type: Sister-chromatid exchange (SCE) in vitro, Assay Code: SC1+, Evaluation Type: Evaluation B (Post-1980))?
**A.** The mutagenic call was “active; positive”.

**Q.** What about the mutagenic call (Species/Cell Type: Mouse (C3H/10T1/2) cells, Assay Type: Cell transformation, Assay Code: CTH-, Evaluation Type: Evaluation A (Pre-1980)) of the same compound?
**A.** Its mutagenic call is “inactive; negative”.

**Q.** What about the mutagenic call (Species/Cell Type: Nonhuman, Assay Type: Sister-chromatid exchange (SCE) in vitro, Assay Code: SC2+, Evaluation Type: Evaluation A (Pre-1980)) of the same compound?
**A.** The mutagenic call was “active; positive”.

**Q.** And the mutagenic call (Species/Cell Type: Nonhuman, Assay Type: Sister-chromatid exchange (SCE) in vitro, Assay Code: SC2T, Evaluation Type: Evaluation B (Post-1980))?
**A.** Its mutagenic call is “no conclusion”.

**Q.** And the mutagenic call [8]?
**A.** The mutagenic call was “inactive; negative”.

**Q.** What about the mutagenic call (Species/Cell Type: Salmonella typhimurium (one or more of the five standard strains: TA98, TA100, TA1535, TA1537, and TA1538), Assay Type: Histidine reverse gene mutation, Ames assay, Assay Code: SAL-, Evaluation Type: Evaluation A (Pre-1980)) of the same compound?
**A.** Its mutagenic call is “inactive; negative”.

**Q.** And the mutagenic call (Species/Cell Type: Syrian hamster embryo (SHE) cells, Assay Type: Cell transformation, clonal assay, Assay Code: CTC-, Evaluation Type: Evaluation A (Pre-1980))?
**A.** The mutagenic call was “inactive; negative”.

**Q.** Clc1cccc(Cl)c1 was tested. Which mutagenic call (Species/Cell Type: Mammalian polychromatic erythrocytes, Assay Type: Micronucleus test, chromosome aberrations, Assay Code: MNT+, Evaluation Type: Evaluation B (Post-1980)) did it give?
**A.** Its mutagenic call is “active; positive”.

**Q.** Which results are given for Cc1ccc2cc3c(c4c2c1CC4)[C@H](O)[C@@H](O)c1ccccc1-3?
**A.** mutagenic call [7]: inactive; negative; mutagenic call (Species/Cell Type: Mouse prostate cells, Assay Type: Cell transformation, Assay Code: CTM-, Evaluation Type: Evaluation A (Pre-1980)): inactive; negative; call [9]: no conclusion; mutagenic call [4]: active; positive

**Q.** For O=C1OC2(c3ccc(O)cc3Oc3cc(O)ccc32)c2ccccc21, which mutagenic call [1] is on record?
**A.** Its mutagenic call is “no conclusion”.

**Q.** C=C(C)C(=O)/C(=C\C(=O)O)OC was tested. Which mutagenic call (Species/Cell Type: Bacillus subtilis (H17 vs M45), Assay Type: Rec-assay, spot test, DNA effects (bacterial DNA repair), Assay Code: REW+, Evaluation Type: Evaluation A (Pre-1980)) did it give?
**A.** Its mutagenic call is “active; positive”.

**Q.** And the call (Species/Cell Type: Nonhuman, Assay Code: CCG+L, Evaluation Type: Evaluation A (Pre-1980))?
**A.** The call was “active; positive”.

**Q.** And the mutagenic call [8]?
**A.** The mutagenic call was “inactive; negative”.

**Q.** What about the mutagenic call [6] of the same compound?
**A.** The mutagenic call was “no conclusion”.

**Q.** C=CC(OC(C)=O)c1ccc(OC)c2ccccc12 (stereo unspecified) was tested. Which mutagenic call [5] did it give?
**A.** Its mutagenic call is “active; positive”.

**Q.** What does the source list for Cc1c2ccccc2c(C)c2c1cc(O)c1ccccc12?
**A.** mutagenic call (Species/Cell Type: Chinese hamster lung (V79) cells, Assay Type: Forward gene mutation at the HPRT or ouabain locus, Assay Code: V79-*, Activation: With metabolic activation, Evaluation Type: Evaluation A (Pre-1980)): inactive; negative; call [9]: no conclusion
